In PubChem BioAssay AID2477 (Broad Institute, 2010):
Where “and” joins values, the source holds several entries; their conditions need not be identical. Equal values may be shown once.

System: Streptococcus pyogenes UMAA2166 viability, BacTiter-Glo luminescence, 6 h
Experiment: GAS bacterial viability reduction – luminescence, BacTiter-Glo, strain UMAA2166, counter-screen for streptokinase expression inhibitor project, dose response (AID 2477);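 active = compounds whose fitted viability EC50 is at most ten times the top tested dose; inconclusive = flat fit with partial activity, or a poor fit; inactive = the rest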

Compound	EC50 (measured here: retest run 2) [µM]	EC50 (measured here: retest run 3) [µM]	EC50 (measured here: retest run 4) [µM]	EC50
COc1nc(-c2ccccc2)nc2ccccc12	> 500	> 500	> 500	
CC(C)Oc1nc(-c2ccc(Cl)cc2)nc2ccccc12	47	> 500	> 500	
N#Cc1cc(NC(=O)c2ccc(Cl)cc2)ccc1Sc1ccccc1	70.5	69.3		
COc1ccc(-c2nc(OC)c3ccccc3n2)cc1	> 500	> 500		
COc1cccc(-c2nc(OC(C)C)c3ccccc3n2)c1	> 500	> 500	> 500	
CCCOc1ccc(-c2nc(OC)c3ccccc3n2)cc1	> 500	> 500	> 500	
COc1ccc(S(=O)(=O)c2ccc(NC(=O)c3ccccc3Cl)cc2C#N)cc1	> 500	> 500	> 500	
Cc1ccc(Sc2ccc(NC(=O)c3ccc(F)cc3)cc2C#N)cc1	> 500	> 500	> 500	
CCCOc1ccc(-c2nc(Oc3ccccc3)c3ccccc3n2)cc1	> 500	> 500	> 500	
COc1ccc(Sc2ccc(NC(=O)c3ccccc3Cl)cc2C#N)cc1	> 500	45.4	> 500	> 500 µM (inactive) and 36.7 µM
CCCOc1ccc(-c2nc(Oc3ccc(OC)cc3)c3ccccc3n2)cc1	> 500	> 500	> 500	
COc1ccc(Sc2ccc(NC(=O)c3cccc(Cl)c3)cc2C#N)cc1	> 500			
